Values quoted from earlier work in patent US20130217673A1, “MIXED MONOAMINE REUPTAKE INHIBITOR IN A BIODEGRADABLE POLYMER CARRIER” (Warsaw Orthopedic, Inc, priority 2012, published 2013).

Test system: nociception
Conditions: compared with bupivacaine

Row | Structure (SMILES) | duration of the effect in blocking nociception | potency in blocking nociception relative to bupivacaine
1 | CN(C)CCC=C1c2ccccc2CCc2ccccc21 [amitryptyline, 3-(10,11-dihydro-5H-dibenzo[a,d]cycloheptene-5-ylidene)-N,N-dimethylpropan-1-amine] | the effects last longer | at least three times more potent than bupivacaine
2 | CN(C)CCC=C1c2ccccc2COc2ccccc21 [doxepin] | the effects last longer | at least three times more potent than bupivacaine
